Holding throughout (type): binding
Assay [1] has as its target T1, HeLa cell extract proteins (Homo sapiens, UniProt Q9UBB4).
T1 construct: endogenous in cells; host or cells: HeLa cell extract
T1 sequence (Q9UBB4 1-475): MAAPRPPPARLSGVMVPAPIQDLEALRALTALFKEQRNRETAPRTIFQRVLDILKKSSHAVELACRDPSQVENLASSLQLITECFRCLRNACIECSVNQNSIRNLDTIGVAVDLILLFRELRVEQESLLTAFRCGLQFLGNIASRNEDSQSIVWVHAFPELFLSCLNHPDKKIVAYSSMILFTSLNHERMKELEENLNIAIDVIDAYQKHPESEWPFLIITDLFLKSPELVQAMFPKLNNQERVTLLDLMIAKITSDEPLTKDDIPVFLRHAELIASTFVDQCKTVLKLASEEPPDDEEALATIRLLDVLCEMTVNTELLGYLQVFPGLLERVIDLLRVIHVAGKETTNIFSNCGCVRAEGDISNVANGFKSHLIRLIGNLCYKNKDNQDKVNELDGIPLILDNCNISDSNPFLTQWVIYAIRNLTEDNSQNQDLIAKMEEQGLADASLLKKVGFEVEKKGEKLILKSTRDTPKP
Conditions: protein Ataxin-10; HeLa.

For assay [2], the target named is T2, HeLa cell extract proteins (Homo sapiens, UniProt Q9BVA1).
T2 construct: endogenous in cells; host or cells: HeLa cell extract
Conditions: HeLa; protein TUBB2B.

Assay [3] addresses T3, HeLa cell extract proteins (Homo sapiens, UniProt Q9UPN7).
T3 construct: endogenous in cells; host or cells: HeLa cell extract
T3 sequence (Q9UPN7 1-881): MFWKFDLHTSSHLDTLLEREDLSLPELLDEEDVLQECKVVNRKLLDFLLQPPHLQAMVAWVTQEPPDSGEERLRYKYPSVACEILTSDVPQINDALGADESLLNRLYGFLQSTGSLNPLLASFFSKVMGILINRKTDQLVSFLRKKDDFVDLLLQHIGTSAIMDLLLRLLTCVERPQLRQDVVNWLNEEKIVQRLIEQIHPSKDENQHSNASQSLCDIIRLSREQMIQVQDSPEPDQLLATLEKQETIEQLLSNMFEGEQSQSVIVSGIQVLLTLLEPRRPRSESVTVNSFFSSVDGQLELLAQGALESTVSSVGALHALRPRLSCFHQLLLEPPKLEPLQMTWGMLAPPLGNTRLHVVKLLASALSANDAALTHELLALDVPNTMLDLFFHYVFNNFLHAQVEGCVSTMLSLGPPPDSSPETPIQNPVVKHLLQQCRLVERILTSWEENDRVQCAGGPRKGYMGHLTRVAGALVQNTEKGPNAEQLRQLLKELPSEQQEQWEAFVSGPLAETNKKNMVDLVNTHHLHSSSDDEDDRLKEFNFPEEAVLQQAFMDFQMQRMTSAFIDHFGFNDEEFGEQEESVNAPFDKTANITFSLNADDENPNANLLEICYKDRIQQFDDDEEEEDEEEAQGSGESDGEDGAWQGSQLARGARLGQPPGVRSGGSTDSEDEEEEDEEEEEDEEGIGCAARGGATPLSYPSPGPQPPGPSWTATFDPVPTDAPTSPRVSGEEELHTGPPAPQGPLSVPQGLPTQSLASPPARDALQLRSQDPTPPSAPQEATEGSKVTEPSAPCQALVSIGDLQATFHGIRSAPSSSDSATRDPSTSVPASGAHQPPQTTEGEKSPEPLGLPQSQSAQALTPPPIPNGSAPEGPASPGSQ

Assay [4] concerns the target T4, HeLa cell extract proteins (Homo sapiens, UniProt O00170).
T4 construct: endogenous in cells; host or cells: HeLa cell extract
T4 sequence (O00170 1-330): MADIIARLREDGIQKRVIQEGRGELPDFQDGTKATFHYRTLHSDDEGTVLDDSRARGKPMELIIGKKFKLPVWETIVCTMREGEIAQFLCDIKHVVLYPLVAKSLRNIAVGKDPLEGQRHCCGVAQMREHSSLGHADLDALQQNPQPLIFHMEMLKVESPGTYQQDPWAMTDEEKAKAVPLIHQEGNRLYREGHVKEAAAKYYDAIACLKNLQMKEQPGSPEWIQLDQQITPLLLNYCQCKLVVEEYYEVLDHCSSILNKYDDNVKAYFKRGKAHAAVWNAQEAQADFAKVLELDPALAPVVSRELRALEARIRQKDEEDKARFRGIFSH

The target of assay [5] is T5, HeLa cell extract proteins (Homo sapiens, UniProt P13727).
T5 construct: endogenous in cells; host or cells: HeLa cell extract
T5 sequence (P13727 106-222): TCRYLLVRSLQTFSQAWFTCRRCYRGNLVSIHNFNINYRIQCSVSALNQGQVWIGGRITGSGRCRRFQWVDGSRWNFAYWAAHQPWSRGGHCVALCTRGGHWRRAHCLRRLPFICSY

Assay [6] concerns the target T6, HeLa cell extract proteins (Homo sapiens, UniProt Q92499).
T6 construct: endogenous in cells; host or cells: HeLa cell extract
T6 sequence (Q92499 1-740): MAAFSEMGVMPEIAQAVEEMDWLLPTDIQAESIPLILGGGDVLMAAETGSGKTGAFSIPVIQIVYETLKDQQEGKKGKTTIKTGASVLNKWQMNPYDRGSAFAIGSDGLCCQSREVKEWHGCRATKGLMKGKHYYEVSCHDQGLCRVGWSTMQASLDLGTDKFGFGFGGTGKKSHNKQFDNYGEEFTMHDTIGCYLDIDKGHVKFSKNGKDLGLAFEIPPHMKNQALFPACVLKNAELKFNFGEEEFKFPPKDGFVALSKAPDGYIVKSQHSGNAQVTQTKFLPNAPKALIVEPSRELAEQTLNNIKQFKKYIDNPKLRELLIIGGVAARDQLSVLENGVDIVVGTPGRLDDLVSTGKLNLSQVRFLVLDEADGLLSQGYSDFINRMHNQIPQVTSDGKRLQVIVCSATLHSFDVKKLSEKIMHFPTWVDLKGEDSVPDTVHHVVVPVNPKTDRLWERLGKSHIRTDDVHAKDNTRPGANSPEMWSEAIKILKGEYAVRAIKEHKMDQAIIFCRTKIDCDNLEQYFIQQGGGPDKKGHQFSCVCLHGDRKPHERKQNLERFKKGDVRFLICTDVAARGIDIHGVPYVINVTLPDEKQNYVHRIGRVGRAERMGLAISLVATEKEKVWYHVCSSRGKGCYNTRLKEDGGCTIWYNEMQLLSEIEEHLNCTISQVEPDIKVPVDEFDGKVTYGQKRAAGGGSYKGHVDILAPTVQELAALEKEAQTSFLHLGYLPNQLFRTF

The mark [7] stands for this setting: HeLa, protein SAPS1 (SAPS1 PROTEIN).

The structures appear in SMILES notation. Like-named read-outs stand apart in the source and are kept apart here.

T2 sequence (Q9BVA1 whole entry): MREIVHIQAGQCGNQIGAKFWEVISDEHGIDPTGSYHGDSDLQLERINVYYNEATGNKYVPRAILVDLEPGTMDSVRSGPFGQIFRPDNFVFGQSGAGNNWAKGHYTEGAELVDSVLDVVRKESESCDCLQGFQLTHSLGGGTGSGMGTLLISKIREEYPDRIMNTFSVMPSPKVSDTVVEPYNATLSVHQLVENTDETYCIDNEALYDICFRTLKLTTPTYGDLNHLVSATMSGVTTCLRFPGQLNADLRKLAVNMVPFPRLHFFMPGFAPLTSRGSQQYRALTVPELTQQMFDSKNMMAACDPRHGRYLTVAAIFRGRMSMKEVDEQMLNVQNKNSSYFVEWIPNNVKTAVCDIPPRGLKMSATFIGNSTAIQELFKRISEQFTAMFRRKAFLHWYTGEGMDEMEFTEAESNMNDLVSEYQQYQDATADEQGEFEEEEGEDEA

Take `Nc1nc2cccc(-c3ccccc3)c2n1Cc1ccc(Cl)c(Cl)c1` [compound 3]: the “fold changes relative to vehicle control” value in assay [1] came to 1.04; in assay [2], 1.11.

With `NCCOCCOCC(=O)Nc1nc2ncc(CNc3ccc(C(=O)NC(CCC(=O)O)C(=O)O)cc3)nc2c(=O)[nH]1` (stereo not shown) [compound 6], the “fold changes relative to vehicle control” value in assay [3] (setting [7]) was found to be 1.29; in assay [4] (HeLa, captured protein AIP), 0.92; in assay [5] (HeLa, captured protein PRG2) it was 0.77; in assay [6] (HeLa, captured protein DDX1), 1.12.

As for `Nc1nc2[nH]cc(CCc3ccc(C(=O)N[C@@H](CCC(=O)O)C(=O)O)cc3)c2c(=O)[nH]1` [PTX, pemetrexed], the “fold changes relative to vehicle control” value in assay [3] was found to be 1.49; in assay [4], 0.93; in assay [5], 0.86; in assay [6] it was 1.14.

On to `Nc1nc2c(c(=O)[nH]1)N(C=O)C(CNc1ccc(C(=O)N[C@@H](CCC(=O)O)C(=O)O)cc1)CN2` (stereo partly shown) [LEU, leucovorin], for which the “fold changes relative to vehicle control” value in assay [3] (setting [7]) is 1.01; in assay [4] (HeLa, captured protein AIP) it was 0.79; in assay [5] (HeLa, captured protein PRG2), 0.92; in assay [6] (HeLa, captured protein DDX1), 1.15.

For the compound `CCCCCCOc1ccc(Cc2cnc(N)nc2N)cc1` [compound 1], the figures for the “fold changes relative to vehicle control” value in assay [1] and in assay [2] were 1.14 and 1.07, respectively.

Turning to `NCCCNc1ccc(C(=O)NC(CCC(=O)O)C(=O)O)cc1` (stereo not shown) [compound 7], the “fold changes relative to vehicle control” value is 1.32 in assay [3] (setting [7]); 0.99 in assay [4] (HeLa, captured protein AIP); 1.01 in assay [5] (HeLa, captured protein PRG2); 1.11 in assay [6] (HeLa, captured protein DDX1).

Regarding `CCCCCCOc1cccc(Cc2cnc(N)nc2N)c1` [compound 2], the entries for the “fold changes relative to vehicle control” value in assay [1] and in assay [2] were 1.4 and 1.03, respectively.
